Values of other authors as cited in US20130220225A1, “BAITING METHOD AND COMPOSITION” (priority 2008, published 2013).
Read-outs that look alike come from different tables or passages of the source.

What was measured:
[1] = tested on: Cat (Fellis libyca domestica); conditions: Oral
[2] = tested on: Guinea pig (female) (Cavellio porcinus); conditions: Oral
Coyote (Canis latrans) = conditions: Oral
Raccoon (Procyon lotor) = conditions: Oral
[3] = tested on: Blackbird (red-wing) (Agelaius phoenicus); conditions: Oral
[4] = tested on: Magpie (black-billed) (Pica pica); conditions: Oral
[5] = tested on: Quail (Coturnix coturnix); conditions: Oral
[6] = tested on: Eagle (Aquila chrysaetos); conditions: Oral
Bobcat (Lynx rufus) = conditions: Oral
[7] = tested on: Rat (male) (Rattus norvegicus); conditions: Oral
[8] = tested on: Badger (Nth Am.) (Taxidea taxus); conditions: Oral
Stoats (Mustela erminea) = conditions: Oral
[9] = tested on: Starling (Sturnus vulgaris); conditions: Oral
[10] = tested on: Tammar wallaby (Macropus eugenii); conditions: Oral
[11] = tested on: Skunk (Mephitis mephitis); conditions: Oral
[12] = tested on: Ferret (Mustela putoris furo); conditions: Oral
[13] = tested on: Mallard (duck) (Anas platyrhrynchos); conditions: Oral
Fox (kit) (Vulpes velox) = conditions: Oral
[14] = tested on: Brushtail Possum (Trichosaurus vulpecula); conditions: Oral
[15] = tested on: Crow (Corvus brachyrhynchos); conditions: Oral

In the case of `CCC(=O)c1ccc(N)cc1` [p-aminopropiophenone], the LD50 [1] is listed as 5.6 mg/kg, the LD50 [2] is listed as 1020 mg/kg and the LD50 (Coyote (Canis latrans)) is listed as 5.6 mg/kg. For the same compound, the LD50 (Raccoon (Procyon lotor)) was 142 mg/kg, the LD50 [3] was 133 mg/kg and the LD50 [4] was 178 mg/kg. The LD50 [5] was >316 mg/kg, the LD50 [6] was >50 mg/kg and the LD50 (Bobcat (Lynx rufus)) was 10 mg/kg. The LD50 [7] was 177 mg/kg, the LD50 [8] was 100 mg/kg and the LD50 (Stoats (Mustela erminea)) was 9.3 mg/kg. For the same compound, the LD50 [9] was >316 mg/kg, the LD50 [10] was 89 mg/kg and the LD50 [11] was >400 mg/kg. For the same compound, the LD50 [12] was 29 mg/kg, the LD50 [13] was 38 mg/kg and the LD50 (Fox (kit) (Vulpes velox)) was 14.1 mg/kg. The LD50 [14] was 500 mg/kg, the LD50 (Mouse (Mus domesticus); Mouse (female), I.V.) was 200 mg/kg and the LD50 (Mouse (Mus domesticus); Mouse (female), Oral) was >5,000 mg kg^−1. For the same compound, the LD50 (Mouse (Mus domesticus); Mouse (male), I.V.) was 145 mg/kg, the LD50 (Mouse (Mus domesticus); Mouse (sex not given), Oral) was 233 mg/kg and the LD50 [15] was >178 mg/kg.
